Measured values taken from patent publication US7161008B2, “Optically active β-aminoketones, optically active 1,3-amino alcohols and processes for preparing them” (Sanofi - Aventis Deutschland GmbH, priority 2002, dated 2007).

Assay: Syn/anti-isomerization of the Mannich salt via retro-Mannich/Mannich reaction in DMSO-d6 solution at 300 K, 1H NMR monitoring
Assay type: physicochemical
Settings: for cis-isomer [%] / trans-isomer [%]: DMSO-d6, 300 K, 1H NMR
Protocol: Electron-withdrawing substituents in the aldehyde component of formula (IV) reduced the retro-Mannich tendency. The 1H NMR monitoring of the syn/anti-isomerization of a syn-Mannich salt of formula (III) via retro-Mannich reaction at 300 K in DMSO-d6 solution can be seen in Example 28.
Syn/anti-isomerization of the Mannich base mandelate from […] in DMSO-d^6 solution at 300K. Kinetics and equilibrium location of the retro-Mannich/Mannich reactions:
8 mg of the product from Example 27 were dissolved in DMSO-d^6 as rapidly as possible in a ^1H NMR tube at room temperature. The sample was immediately introduced into the NMR instrument (400 MHz, 300.0 K), shimmed rapidly and analyzed. The first spectrum was obtained 3.5 min after the sample dissolution. […] Further spectra of the solution were each obtained at an interval of 3–4 min. […] The variation can be seen from the graphics and the table of the appendix. 69 min after dissolution of the Mannich salt, the NMR monitoring was aborted at a syn/anti ratio of 50:50. A repeat measurement 20.5 hours after dissolution of the Mannich salt indicated a syn/anti ratio of 41.5:58.5. After a total of 44.5 hours, this ratio was unchanged. The thermodynamic equilibrium of the two isomers is thus achieved in less than 20 h and the anti-isomer is preferred in solution. In contrast, the four-component coupling (Example 27) results in the crystallization of virtually pure syn-isomer, apparently owing to lower solubility. Even the spectrum obtained 3.5 min after sample dissolution indicates (in addition to the syn- and anti-isomers of the Mannich salt) the presence of the retro-Mannich products 2-pyridylmethyl phenyl ketone (formula VI; singlet at δ is 4.53 ppm) and tolylaldehyde (or corresponding imine) (formula IV or X, singlets at δ is 2.40 and 9.12 ppm) in small but significant amounts. The best fitting curve between the measurement points of the graph was obtained by 3rd order polynomial formation.

[1] = 3.5 min after sample dissolution
[2] = 6.5 min after sample dissolution
[3] = 10.5 min after sample dissolution
[4] = 13.5 min after sample dissolution
[5] = 17.5 min after sample dissolution
[6] = 20.5 min after sample dissolution
[7] = 24.5 min after sample dissolution
[8] = 27.5 min after sample dissolution
[9] = 31.5 min after sample dissolution
[10] = 34.5 min after sample dissolution
[11] = 37.5 min after sample dissolution
[12] = 41.5 min after sample dissolution
[13] = 44.5 min after sample dissolution
[14] = 48.5 min after sample dissolution
[15] = 51.5 min after sample dissolution
[16] = 55.5 min after sample dissolution
[17] = 58.5 min after sample dissolution
[18] = 61.5 min after sample dissolution
[19] = 65.5 min after sample dissolution
[20] = 68.5 min after sample dissolution
[21] = 1230 min after sample dissolution
[22] = 2670 min after sample dissolution

Cc1ccc(C(Nc2ccccn2)C(C(=O)c2ccccc2)c2ccccn2)cc1.O=C(O)C(O)c1ccccc1 (stereo not shown) [Example 27]
cis-isomer [%] [1]: 95.1%
trans-isomer [%] [1]: 4.9%
cis-isomer [%] [2]: 92.5%
trans-isomer [%] [2]: 7.5%
cis-isomer [%] [3]: 89.0%
trans-isomer [%] [3]: 11.0%
cis-isomer [%] [4]: 85.0%
trans-isomer [%] [4]: 15.0%
cis-isomer [%] [5]: 81.7%
trans-isomer [%] [5]: 18.3%
cis-isomer [%] [6]: 77.3%
trans-isomer [%] [6]: 22.7%
cis-isomer [%] [7]: 76.8%
trans-isomer [%] [7]: 23.2%
cis-isomer [%] [8]: 71.8%
trans-isomer [%] [8]: 28.2%
cis-isomer [%] [9]: 68.0%
trans-isomer [%] [9]: 32.0%
cis-isomer [%] [10]: 66.2%
trans-isomer [%] [10]: 33.8%
cis-isomer [%] [11]: 63.8%
trans-isomer [%] [11]: 36.2%
cis-isomer [%] [12]: 61.7%
trans-isomer [%] [12]: 38.3%
cis-isomer [%] [13]: 60.1%
trans-isomer [%] [13]: 39.9%
cis-isomer [%] [14]: 58.7%
trans-isomer [%] [14]: 41.3%
cis-isomer [%] [15]: 56.8%
trans-isomer [%] [15]: 43.2%
cis-isomer [%] [16]: 54.5%
trans-isomer [%] [16]: 45.5%
cis-isomer [%] [17]: 53.6%
trans-isomer [%] [17]: 46.4%
cis-isomer [%] [18]: 52.9%
trans-isomer [%] [18]: 47.1%
cis-isomer [%] [19]: 52.0%
trans-isomer [%] [19]: 48.0%
cis-isomer [%] [20]: 50.5%
trans-isomer [%] [20]: 49.5%
cis-isomer [%] [21]: 41.5%
trans-isomer [%] [21]: 58.5%
cis-isomer [%] [22]: 41.6%
trans-isomer [%] [22]: 58.4%
syn/anti ratio of the Mannich salt in solution, compared with 20.5 hours (DMSO-d6, 300.0 K, after a total of 44.5 hours): unchanged
time to thermodynamic equilibrium of syn- and anti-isomers (DMSO-d6 solution, 300 K): less than 20 h
